# Measurements taken from patent US20250059174A1, “Pharmaceutical Compounds and Compositions as C-Kit Kinase Inhibitors” (Enanta Pharmaceuticals, Inc., priority 2023, published 2025).
# What was measured:
# [1] = target: Recombinant human c-KIT kinase (Homo sapiens (Human), UniProt P10721); experiment: c-KIT kinase chemiluminescence assay (ADP-Glo); assay type: biochemical; settings: ATP 50 μM
# Description: The c-KIT Kinase Enzyme System (V4498) and ADP-Glo™ Kinase Assay kit (V6930) were purchased from Promega (Madison, WI). DMSO (D2650) was purchased from Sigma-Aldrich (Burlington, MA).
# Kinase Reaction: The kinase assay was based on the recommended protocol by c-KIT Kinase Enzyme System from Promega. Recombinant human c-KIT kinase in 3 μL of assay buffer (40 mM Tris pH 7.5, 20 mM MgCl2, 0.1 mg/mL BSA and 50 μM DTT) was added to the test or high control wells and 3 μL of assay buffer was added to the low control wells. The microplate was centrifuged at 800 rotations per minute (rpm) for 60 s and incubated at room temperature (RT) for 30 min. Next, 2 μL of buffered ATP and polyEY substrate solution was added to all wells. The microplate was centrifuged at 800 rpm for 60 s and incubated at RT for 2 h.
# ADP detection with ADP-Glo™ Kinase Assay: After the kinase reaction incubation, 5 μL of ADP-Glo™ reagent was added to all wells. The microplate was centrifuged at 800 rpm for 60 s and incubated at RT for 40 min. Ten microliter (10 μL) of Kinase Detection Reagent (Luciferin-Luciferase system) was then added to all wells. The microplate was centrifuged at 800 rpm for 60 s and incubated at RT for 60 min. Kinase activity was measured as increase in luminescence at RT in an Envision plate reader equipped with 560 nm filters and operating in endpoint mode. Data Analysis: Endpoint chemiluminescence from high and low control wells were used to calculate normalized c-KIT activity at various concentrations of test compounds. The normalized activities were fitted to inhibitor-versus-normalized response fit in GraphPad Prism 7 to determine half-maximal inhibitory concentration (IC50) and hill coefficient values (H).
# Where I is the inhibitor concentration and H is the Hill coefficient.
# [2] = system: M-07e cells; experiment: M-07e cellular assay (SCF-mediated cell proliferation); assay type: cell-based; settings: Homo sapiens, 72 hours, CellTiter Glo
# Description: M-07e cells (Creative Bioarray, CSC-C0249) which endogenously express human c-KIT were used to evaluate the effect of compounds on stem cell factor (SCF)-mediated cell proliferation. M-07e cells were cultured in growth media (RPMI+10% FBS+1% penicillin/streptomycin+10 ng/mL GM-CSF) at 5E5-1.5E6 cells/mL, replenishing media every 3-4 days. 1.5E4 cells were seeded per well in 384 well tissue culture treated plates in 20 μL assay media (RPMI+[…]+1% penicillin/streptomycin) without growth factor stimulation and incubated at 37° C. in a CO2 humidity-controlled incubator. Twenty-four hours later, three-fold serially diluted test compounds in media containing SCF (at the previously determined EC90) were added to the plated M-07e cells and incubated for an additional 72 hours. Cell viability was determined by adding 25 μL CellTiter Glo (Promega) to the cells and the luminescence was measured using a Perkin Elmer Envision plate reader. The EC50 was determined using GraphPad Prism. Percent cell growth was determined after normalizing the curve to the mean RLU high control (no compound control wells) at 100% and the mean RLU low control (no SCF control wells) at 0%.
# Recombinant human c-KIT kinase, sequence (P10721 26-976): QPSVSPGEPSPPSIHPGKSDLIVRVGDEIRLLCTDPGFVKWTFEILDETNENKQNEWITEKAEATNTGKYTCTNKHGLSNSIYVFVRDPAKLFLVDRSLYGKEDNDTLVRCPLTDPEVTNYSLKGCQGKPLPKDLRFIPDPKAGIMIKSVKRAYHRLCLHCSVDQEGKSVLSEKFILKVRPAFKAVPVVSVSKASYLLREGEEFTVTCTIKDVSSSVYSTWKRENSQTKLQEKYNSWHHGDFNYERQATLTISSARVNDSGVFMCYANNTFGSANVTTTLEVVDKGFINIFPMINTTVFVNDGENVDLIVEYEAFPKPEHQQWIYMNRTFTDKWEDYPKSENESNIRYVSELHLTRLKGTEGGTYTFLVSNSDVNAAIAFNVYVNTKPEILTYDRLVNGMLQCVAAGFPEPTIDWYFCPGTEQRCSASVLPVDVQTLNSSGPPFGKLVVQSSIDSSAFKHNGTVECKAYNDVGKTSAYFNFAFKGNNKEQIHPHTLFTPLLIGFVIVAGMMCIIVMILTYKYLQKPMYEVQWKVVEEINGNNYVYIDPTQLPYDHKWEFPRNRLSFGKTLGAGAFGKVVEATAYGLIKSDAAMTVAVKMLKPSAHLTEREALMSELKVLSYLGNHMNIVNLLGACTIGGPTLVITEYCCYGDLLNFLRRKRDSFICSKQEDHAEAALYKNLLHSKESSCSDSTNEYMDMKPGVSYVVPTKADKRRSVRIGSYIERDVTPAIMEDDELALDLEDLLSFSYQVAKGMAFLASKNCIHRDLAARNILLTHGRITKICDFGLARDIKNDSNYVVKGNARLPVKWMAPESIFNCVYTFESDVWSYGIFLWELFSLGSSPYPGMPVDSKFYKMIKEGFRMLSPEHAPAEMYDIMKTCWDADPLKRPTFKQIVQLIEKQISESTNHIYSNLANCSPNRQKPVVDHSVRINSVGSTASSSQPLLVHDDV
Compound,IC50 [1] [µM],EC50 [2] [µM]
Cc1ccc(-c2noc([C@H]3C[C@@H]3F)n2)cc1NC(=O)c1cnn2cc(F)ccc12 [Example 1a],0.1 to 1,0.1 to 1
Cc1ccc(-c2noc([C@H]3C[C@@H]3F)n2)cc1NC(=O)c1cncn1C [Example 2],> 1,> 1
Cc1ccc(-c2noc(C3C[C@@H]3F)n2)cc1NC(=O)c1cnn2ccc(-c3cnn(C(F)F)c3)cc12 (stereo partly drawn) [Example 2a],,< 0.1
Cc1ccc(-c2noc([C@H]3C[C@@H]3F)n2)cc1NC(=O)c1cccnc1 [Example 3],> 1,> 1
Cc1ccc(-c2noc([C@H]3C[C@@H]3F)n2)cc1NC(=O)c1cnc(C)n1C [Example 4],> 1,> 1
Cc1ccc(-c2noc([C@H]3C[C@@H]3F)n2)cc1NC(=O)c1cccnn1 [Example 5],> 1,> 1
Cc1ccc(-c2noc([C@H]3C[C@@H]3F)n2)cc1NC(=O)c1cnn2ccccc12 [Example 6],< 0.1,< 0.1
Cc1ccc(-c2noc([C@H]3C[C@@H]3F)n2)cc1NC(=O)c1cnn2cccnc12 [Example 7],> 1,> 1
Cc1ccc(-c2noc([C@H]3C[C@@H]3F)n2)cc1NC(=O)c1cnc(-c2ccccc2)n1C [Example 14],0.1 to 1,> 1
Cc1ccc(-c2noc([C@H]3C[C@@H]3F)n2)cc1NC(=O)c1cnn2ccncc12 [Example 15],0.1 to 1,0.1 to 1
Cc1ccc(-c2noc([C@H]3C[C@@H]3F)n2)cc1NC(=O)c1cnn(-c2ccccc2)c1 [Example 23],0.1 to 1,0.1 to 1
Cc1ccc(-c2noc([C@H]3C[C@@H]3F)n2)cc1NC(=O)c1ccnc2ccccc12 [Example 27],> 1,> 1
Cc1ccc(-c2noc([C@H]3C[C@@H]3F)n2)cc1NC(=O)c1cnc2sccn12 [Example 30],< 0.1,0.1 to 1
Cc1ncc(C(=O)Nc2cc(-c3noc([C@H]4C[C@@H]4F)n3)ccc2C)s1 [Example 34],> 1,> 1
Cc1ccc(-c2noc([C@H]3C[C@@H]3F)n2)cc1NC(=O)c1cnn(C)c1 [Example 35],> 1,> 1
Cc1ccc(-c2noc([C@H]3C[C@@H]3F)n2)cc1NC(=O)c1cnn2c1CCC2 [Example 36],> 1,> 1
Cc1ccc(-c2noc([C@H]3C[C@@H]3F)n2)cc1NC(=O)c1cnc2n1CCC2 [Example 37],> 1,> 1
CC(=O)Nc1ncc(C(=O)Nc2cc(-c3noc([C@H]4C[C@@H]4F)n3)ccc2C)s1 [Example 38],0.1 to 1,0.1 to 1
Cc1ccc(-c2noc([C@H]3C[C@@H]3F)n2)cc1NC(=O)c1coc2ccccc12 [Example 39],> 1,> 1
Cc1ccc(-c2noc([C@H]3C[C@@H]3F)n2)cc1NC(=O)c1n[nH]c2ncccc12 [Example 40],> 1,> 1
"Cc1ccc(-c2noc([C@H]3C[C@@H]3F)n2)cc1NC(=O)c1cnn2cc(Br)ccc12 [Example 41, 6-bromo-N-(5-(5-((1R,2S)-2-fluorocyclopropyl)-1,2,4-oxadiazol-3-yl)-2-methylphenyl)pyrazolo [1,5-a]pyridine-3-carboxamide]",< 0.1,0.1 to 1
"Cc1ccc(-c2noc([C@H]3C[C@@H]3F)n2)cc1NC(=O)c1cnn2ccc(Br)cc12 [Example 42, 5-bromo-N-(5-(5-((1R,2S)-2-fluorocyclopropyl)-1,2,4-oxadiazol-3-yl)-2-methylphenyl)pyrazolo[1,5-a]pyridine-3-carboxamide]",< 0.1,0.1 to 1

Compound,IC50 [1] [µM],EC50 [2] [µM]
Cc1ccc(-c2noc([C@H]3C[C@@H]3F)n2)cc1NC(=O)c1cnn2ccc(N3CC4(COC4)C3)cc12 [Example 43],< 0.1,< 0.1
Cc1ccc(-c2noc([C@H]3C[C@@H]3F)n2)cc1NC(=O)c1cnn2ccc(N3CCS(=O)(=O)CC3)cc12 [Example 44],< 0.1,< 0.1
COc1ccc(-n2cc(C(=O)Nc3cc(-c4noc([C@H]5C[C@@H]5F)n4)ccc3C)cn2)cc1 [Example 52],0.1 to 1,0.1 to 1
Cc1ccc(-c2noc([C@H]3C[C@@H]3F)n2)cc1NC(=O)c1cnn2cc(N3CC4(COC4)C3)ccc12 [Example 54],< 0.1,< 0.1
Cc1ccc(-c2noc([C@H]3C[C@@H]3F)n2)cc1NC(=O)c1cnn2ccc(C3CC3)cc12 [Example 55],< 0.1,0.1 to 1
Cc1ccc(-c2noc([C@H]3C[C@@H]3F)n2)cc1NC(=O)c1cnn2cc(C3CC3)ccc12 [Example 56],< 0.1,0.1 to 1
Cc1ccc(-c2noc([C@H]3C[C@@H]3F)n2)cc1NC(=O)c1cnn2cc(Cl)ccc12 [Example 57],< 0.1,0.1 to 1
Cc1ccc(-c2noc([C@H]3C[C@@H]3F)n2)cc1NC(=O)c1cnc2n1Cc1ccccc1-2 [Example 99],,< 0.1
Cc1ncc(-c2ccn3ncc(C(=O)Nc4cc(-c5noc([C@H]6C[C@@H]6F)n5)ccc4C)c3c2)c(C)n1 [Example 168],,< 0.1
Cc1ccc(-c2noc(C3C[C@@H]3F)n2)cc1NC(=O)c1cnn2ccc(N3C[C@H](CS(C)(=O)=O)[C@@H]3C)cc12 (stereo partly drawn) [Example 172],,< 0.1
Cc1ccc(-c2noc([C@H]3C[C@@H]3F)n2)cc1NC(=O)c1cnc(-c2cnc(N)nc2)o1 [Example 308-64],,> 1
Cc1ccc(-c2noc([C@H]3C[C@@H]3F)n2)cc1NC(=O)c1cnc(-c2ccc3c(cnn3CC(C)(C)O)c2)o1 [Example 308-65],< 0.1,
Cc1ccc(-c2noc([C@H]3C[C@@H]3F)n2)cc1NC(=O)c1cnc(-c2ccc3nn(CC(C)(C)O)cc3c2)o1 [Example 308-66],< 0.1,
Cc1ccc(-c2nc([C@H]3C[C@@H]3F)cs2)cc1NC(=O)c1cnn2ccc(N3CC4(COC4)C3)cc12 [Example 309],,< 0.1
Cc1ncc(-c2nnn(C3CN(C(=O)C4CC4)C3)n2)cc1NC(=O)c1cnn2ccc(N3CC4(C3)CC(O)(C(F)F)C4)cc12 [Example 312-10],0.1 to 1,
Cc1ncc(-c2ncc(OC(F)(F)F)cn2)cc1NC(=O)c1cnn2ccc(-c3c(C)nc(N)nc3C)cc12 [Example 364],,< 0.1
Cc1nc(N)nc(C)c1-c1ccn2ncc(C(=O)Nc3cc(-c4noc([C@H]5C[C@@H](OC(F)(F)F)C5)n4)sc3C)c2c1 [Example 368],,0.1 to 1
Cc1nc(N)nc(C)c1-c1ccn2ncc(C(=O)Nc3cc(-c4noc(C5CN(C(=O)OC(C)(C)C)C5)n4)sc3C)c2c1 [Example 369],,> 1
Cc1nc(N)nc(C)c1-c1ccn2ncc(C(=O)Nc3cc(-c4noc([C@H]5C[C@@H]5F)n4)sc3C)c2c1 [Example 370],,> 1
Cc1nc(N)nc(C)c1-c1ccn2ncc(C(=O)Nc3cc(-c4noc(C5CN(C(=O)[C@H]6C[C@@H]6F)C5)n4)sc3C)c2c1 [Example 371],,> 1
Cc1nn(-c2ccc(C3CC3)cc2)cc1NC(=O)c1cnn2ccc(N3CC4(COC4)C3)cc12 [Example 372],,> 1
O=C(Nc1cn(-c2ccc(C3CC3)cc2)nc1C(F)F)c1cnn2ccc(N3CC4(COC4)C3)cc12 [compound 373],> 1,
